Assay results: ChEMBL document CHEMBL1212787, “Antimicrobial peptide hLF1-11 directs granulocyte-macrophage colony-stimulating factor-driven monocyte differentiation toward macrophages with enhanced recognition and clearance of pathogens” (2010)
Activity calls are given as the source filed them. The calls are words filed in the database; no cut-off is given here.

Columns and labels:
Candida albicans [1] = experiment: Antimicrobial activity against Candida albicans infected in human macrophage assessed as induction of phagocytosis of fungus after 10 mins by flow cytometry; assay type: functional, organism-based
[2] = Modulation of GM-CSF-driven human macrophage differentiation assessed as induction of TLR2 expression in at 100 ug/ml after 7 days by flow cytometry; assay type: functional, cell-based
Candida albicans [3] = experiment: Antimicrobial activity against Candida albicans infected in human macrophage assessed as fungus phagocytosing compound-treated macrophages at 30 mins by FACS analysis (reference value: 28%); assay type: functional
Macrophage [4] = experiment: Modulation of GM-CSF-driven human macrophage differentiation assessed as induction of CD11b expression at 100 ug/ml after 7 days by flow cytometry; assay type: functional, cell-based
Macrophage [5] = experiment: Modulation of GM-CSF-driven human macrophage differentiation assessed as induction of 10 ng/ml LTA-stimulatedMCP1 production at 100 ug/ml after 20 hrs; assay type: functional, cell-based
Macrophage [6] = experiment: Modulation of GM-CSF-driven human macrophage differentiation assessed as induction of LPS-stimulated IL-12p40 production in at 1 to 100 ug/ml after 20 hrs; assay type: functional, cell-based
Staphylococcus aureus [7] = experiment: Antimicrobial activity against Staphylococcus aureus LUH2141 infected in human macrophage at 60 mins by FACS analysis (reference value: 9%); assay type: functional, organism-based
Macrophage [8] = experiment: Modulation of GM-CSF-driven human macrophage differentiation assessed as induction of LTA-stimulated IL-10 production in at 1 to 100 ug/ml after 20 hrs; assay type: functional, cell-based
Staphylococcus aureus [9] = experiment: Antimicrobial activity against Staphylococcus aureus LUH2141 infected in human macrophage assessed as bacteria phagocytosing macrophages at 60 mins by FACS analysis (reference value: 30%); assay type: functional
Candida albicans [10] = experiment: Antimicrobial activity against Candida albicans infected in human macrophage assessed as fungus phagocytosing compound-treated macrophages at 15 mins by FACS analysis (reference value: 13%); assay type: functional
[11] = Modulation of GM-CSF-driven human macrophage differentiation assessed as induction of dectin-1 expression at 100 ug/ml after 7 days by flow cytometry; assay type: functional, cell-based
Macrophage [12] = experiment: Modulation of GM-CSF-driven human macrophage differentiation assessed as induction of LPS-stimulated TNFalpha production in at 1 to 100 ug/ml after 20 hrs; assay type: functional, cell-based
Macrophage [13] = experiment: Modulation of GM-CSF-driven human macrophage differentiation assessed as induction of heat killed Candida albicans-stimulated IL-12p40 production in at 10 ug/ml after 20 hrs; assay type: functional, cell-based
Staphylococcus aureus [14] = experiment: Antimicrobial activity against Staphylococcus aureus LUH2141 infected in human macrophage at 120 mins by FACS analysis (reference value: 17%); assay type: functional, organism-based
Macrophage [15] = experiment: Modulation of GM-CSF-driven human macrophage differentiation assessed as induction of LTA-stimulated TNFalpha production in at 1 to 100 ug/ml after 20 hrs; assay type: functional, cell-based
Candida albicans [16] = experiment: Antimicrobial activity against Candida albicans infected in human macrophage assessed as fungal clearance at 60 mins by FACS analysis (reference value: 56%); assay type: functional, organism-based
Macrophage [17] = experiment: Modulation of GM-CSF-driven human macrophage differentiation assessed as induction of heat killed Candida albicans-stimulated IL-10 production in at 1 to 100 ug/ml after 20 hrs; assay type: functional, cell-based
Candida albicans [18] = experiment: Antimicrobial activity against Candida albicans infected in human macrophage assessed as induction of phagocytosis of fungus after 60 mins by flow cytometry; assay type: functional, organism-based
Macrophage [19] = experiment: Modulation of GM-CSF-driven human macrophage differentiation assessed as induction of 1x10^6 CFU heat-killed Candida albicans cells-stimulated TNF-alpha production at 100 ug/ml after 20 hrs; assay type: functional, cell-based
Macrophage [20] = experiment: Modulation of GM-CSF-driven human macrophage differentiation assessed as induction of LTA-stimulated IL-12p40 production in at 1 to 100 ug/ml after 20 hrs; assay type: functional, cell-based
Macrophage [21] = experiment: Modulation of GM-CSF-driven human macrophage differentiation assessed as induction of 1 ng/ml LTA-stimulatedMCP1 production at 100 ug/ml after 20 hrs; assay type: functional, cell-based
[22] = Modulation of GM-CSF-driven human macrophage differentiation assessed as induction of TLR4 expression in at 100 ug/ml after 7 days by flow cytometry; assay type: functional, cell-based
Macrophage [23] = experiment: Modulation of GM-CSF-driven human macrophage differentiation assessed as induction of 0.1 ng/ml LPS-stimulatedIL-10 production at 100 ug/ml after 20 hrs; assay type: functional, cell-based
Monocyte [24] = experiment: Modulation of GM-CSF-driven human monocytes differentiation assessed as induction of LPS-induced IL-10 production after 60 mins; assay type: functional, cell-based
Monocyte [25] = experiment: Modulation of GM-CSF-driven human monocytes differentiation assessed as induction of LPS-induced IL-10 production after 7 days; assay type: functional, cell-based
Macrophage [26] = experiment: Modulation of GM-CSF-driven human macrophage differentiation assessed as induction of CD206 expression at 100 ug/ml after 7 days by flow cytometry; assay type: functional, cell-based
Candida albicans [27] = experiment: Antimicrobial activity against Candida albicans infected in human macrophage assessed as fungus phagocytosing compound-treated macrophages at 60 mins by FACS analysis (reference value: 47%); assay type: functional
Monocyte [28] = experiment: Modulation of GM-CSF-driven human monocytes differentiation assessed as induction of LPS-induced IL-10 production after 10 mins; assay type: functional, cell-based
Macrophage [29] = experiment: Modulation of GM-CSF-driven human macrophage differentiation assessed as induction of CD14 expression in at 100 ug/ml after 7 days by flow cytometry; assay type: functional, cell-based
Staphylococcus aureus [30] = experiment: Antimicrobial activity against Staphylococcus aureus LUH2141 infected in human macrophage assessed as bacteria phagocytosing macrophages at 120 mins by FACS analysis (reference value: 66%); assay type: functional
Macrophage [31] = experiment: Modulation of GM-CSF-driven human macrophage differentiation assessed as induction of heat killed Candida albicans-stimulated TNFalpha production in at 1 to 100 ug/ml after 20 hrs; assay type: functional, cell-based
Macrophage [32] = experiment: Modulation of GM-CSF-driven human macrophage differentiation assessed as induction of LPS-stimulated IL-10 production in at 1 to 100 ug/ml after 20 hrs; assay type: functional, cell-based

In the case of H-GRRRRSVQWCA-OH, the Activity (Candida albicans [1]) is reported as “inactive”, the Activity [2] is reported as “inactive” and the Activity (Candida albicans [3]) is reported as 41%. The Activity (Macrophage [4]) was “inactive”, the Activity (Macrophage [5]) was “Active” and the Activity (Macrophage [6]) was “inactive”. For the same substance, the Activity (Staphylococcus aureus [7]) was “Active”, the Activity (Macrophage [8]) was “Active” and the Activity (Staphylococcus aureus [9]) was 49%. For the same substance, the Activity (Candida albicans [10]) was 22%, the Activity [11] was “Active” and the Activity (Macrophage [12]) was “inactive”. The Activity (Macrophage [13]) was “Active”, the Activity (Staphylococcus aureus [14]) was “Active” and the Activity (Macrophage [15]) was “inactive”. The Activity (Candida albicans [16]) was “Active”, the Activity (Macrophage [17]) was “Active” and the Activity (Candida albicans [18]) was “Active”. For the same substance, the Activity (Macrophage [19]) was “Active”, the Activity (Macrophage [20]) was “Active” and the Activity (Macrophage [21]) was “Active”. For the same substance, the Activity [22] was “Active”, the Activity (Macrophage [23]) was “Active” and the Activity (Monocyte [24]) was “Active”. For the same substance, the Activity (Monocyte [25]) was “Active”, the Activity (Macrophage [26]) was “Active” and the Activity (Candida albicans [27]) was 54%. The Activity (Monocyte [28]) was “inactive”, the Activity (Macrophage [29]) was “Active” and the Activity (Staphylococcus aureus [30]) was 72%. The Activity (Macrophage [31]) was “Active” and the Activity (Macrophage [32]) was “Active”.
